{"source": "patent US20260262643A1", "about": "“HERBICIDAL BENZOXAZINES” (FMC CORPORATION, priority 2022, published 2026)", "key": {"barnyardgrass [1]": {"test_system": "barnyardgrass", "assay": "Test D flooded paddy test", "type": "in vivo, Echinochloa crus-galli", "settings": "250 g ai/ha, applied to paddy water, visual rating after 13 to 14 days, scale 0 to 100 (0 no effect, 100 complete control)", "protocol": "(§1) Plant species in the flooded paddy test selected from barnyardgrass (Echinochloa crus-galli), ducksalad (Heteranthera limosa), rice (Oryza sativa), and sedge, umbrella (small-flower umbrella sedge, Cyperus difformis) were grown to the 2-leaf stage for testing. At time of treatment, test pots were flooded to 3 cm above the soil surface, treated by application of test compounds directly to the paddy water, and then maintained at that water depth for the duration of the test. Treated plants and controls were maintained in a greenhouse for 13 to 14 days, after which time all species were compared to controls and visually evaluated. Plant response ratings, summarized in Table D, are based on a scale of 0 to 100 where 0 is no effect and 100 is complete control. A dash (-) response means no test result."}, "ducksalad": {"test_system": "ducksalad", "assay": "Test D flooded paddy test", "type": "in vivo, Heteranthera limosa", "settings": "250 g ai/ha, applied to paddy water, visual rating after 13 to 14 days, scale 0 to 100 (0 no effect, 100 complete control)", "protocol": "as §1"}, "rice": {"test_system": "rice", "assay": "Test D flooded paddy test", "type": "in vivo, Oryza sativa", "settings": "250 g ai/ha, applied to paddy water, visual rating after 13 to 14 days, scale 0 to 100 (0 no effect, 100 complete control)", "protocol": "as §1"}, "sedge, umbrella": {"test_system": "sedge, umbrella", "assay": "Test D flooded paddy test", "type": "in vivo, Cyperus difformis", "settings": "250 g ai/ha, applied to paddy water, visual rating after 13 to 14 days, scale 0 to 100 (0 no effect, 100 complete control)", "protocol": "as §1"}, "barnyardgrass [2]": {"test_system": "barnyardgrass", "assay": "Test C preemergence", "type": "in vivo, Echinochloa crusgalli", "procedure,_shortened": "(§2)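 Soil-applied (pre) and foliar (post, 1–2 leaf, 2–10 cm) sprays; surfactant-containing non-phytotoxic solvent vehicle; loam/sand substrate. Readout: visual % control at 10 d, greenhouse, versus untreated.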"}, "blackgrass [3]": {"test_system": "blackgrass", "assay": "Test C preemergence", "type": "in vivo, Alopecurus myosuroides", "procedure,_shortened": "as §2"}, "corn [4]": {"test_system": "corn", "assay": "Test C preemergence", "type": "in vivo, Zea mays", "procedure,_shortened": "as §2"}, "green foxtail [5]": {"test_system": "green foxtail", "assay": "Test C preemergence", "type": "in vivo, Setaria viridis", "procedure,_shortened": "as §2"}, "kochia [6]": {"test_system": "kochia", "assay": "Test C preemergence", "type": "in vivo, Bassia scoparia", "procedure,_shortened": "as §2"}, "oat, wild [7]": {"test_system": "oat, wild", "assay": "Test C preemergence", "type": "in vivo, Avena fatua", "procedure,_shortened": "as §2"}, "pigweed, palmer [8]": {"test_system": "pigweed, palmer", "assay": "Test C preemergence", "type": "in vivo, Amaranthus palmeri", "procedure,_shortened": "as §2"}, "ragweed [9]": {"test_system": "ragweed", "assay": "Test C preemergence", "type": "in vivo, Ambrosia artemisiifolia", "procedure,_shortened": "as §2"}, "ryegrass, Italian [10]": {"test_system": "ryegrass, Italian", "assay": "Test C preemergence", "type": "in vivo, Lolium multiflorum", "procedure,_shortened": "as §2"}, "soybean [11]": {"test_system": "soybean", "assay": "Test C preemergence", "type": "in vivo, Glycine max", "procedure,_shortened": "as §2"}, "wheat [12]": {"test_system": "wheat", "assay": "Test C preemergence", "type": "in vivo, Triticum aestivum", "procedure,_shortened": "as §2"}, "barnyardgrass [13]": {"test_system": "barnyardgrass", "assay": "Test C postemergence", "type": "in vivo, Echinochloa crusgalli", "settings": "10 days, 0 to 100 scale (0 no effect, 100 complete control)", "procedure,_shortened": "as §2"}, "blackgrass [14]": {"test_system": "blackgrass", "assay": "Test C postemergence", "type": "in vivo, Alopecurus myosuroides", "settings": "10 days, 0 to 100 scale (0 no effect, 100 complete control)", "procedure,_shortened": "as §2"}, "corn [15]": {"test_system": "corn", "assay": "Test C postemergence", "type": "in vivo, Zea mays", "settings": "10 days, 0 to 100 scale (0 no effect, 100 complete control)", "procedure,_shortened": "as §2"}, "green foxtail [16]": {"test_system": "green foxtail", "assay": "Test C postemergence", "type": "in vivo, Setaria viridis", "settings": "10 days, 0 to 100 scale (0 no effect, 100 complete control)", "procedure,_shortened": "as §2"}, "kochia [17]": {"test_system": "kochia", "assay": "Test C postemergence", "type": "in vivo, Bassia scoparia", "settings": "10 days, 0 to 100 scale (0 no effect, 100 complete control)", "procedure,_shortened": "as §2"}, "oat, wild [18]": {"test_system": "oat, wild", "assay": "Test C postemergence", "type": "in vivo, Avena fatua", "settings": "10 days, 0 to 100 scale (0 no effect, 100 complete control)", "procedure,_shortened": "as §2"}, "pigweed, palmer [19]": {"test_system": "pigweed, palmer", "assay": "Test C postemergence", "type": "in vivo, Amaranthus palmeri", "settings": "10 days, 0 to 100 scale (0 no effect, 100 complete control)", "procedure,_shortened": "as §2"}, "ragweed [20]": {"test_system": "ragweed", "assay": "Test C postemergence", "type": "in vivo, Ambrosia artemisiifolia", "settings": "10 days, 0 to 100 scale (0 no effect, 100 complete control)", "procedure,_shortened": "as §2"}, "ryegrass, Italian [21]": {"test_system": "ryegrass, Italian", "assay": "Test C postemergence", "type": "in vivo, Lolium multiflorum", "settings": "10 days, 0 to 100 scale (0 no effect, 100 complete control)", "procedure,_shortened": "as §2"}, "soybean [22]": {"test_system": "soybean", "assay": "Test C postemergence", "type": "in vivo, Glycine max", "settings": "500 g ai/ha, postemergence, 10 days, 0 to 100 scale (0 no effect, 100 complete control)", "procedure,_shortened": "as §2"}, "wheat [23]": {"test_system": "wheat", "assay": "Test C postemergence", "type": "in vivo, Triticum aestivum", "settings": "10 days, 0 to 100 scale (0 no effect, 100 complete control)", "procedure,_shortened": "as §2"}, "galium": {"test_system": "galium", "assay": "Test C postemergence", "type": "in vivo, Galium aparine", "settings": "10 days, 0 to 100 scale (0 no effect, 100 complete control)", "procedure,_shortened": "as §2"}, "horseweed": {"test_system": "horseweed", "assay": "Test C postemergence", "type": "in vivo, Erigeron canadensis", "settings": "10 days, 0 to 100 scale (0 no effect, 100 complete control)", "procedure,_shortened": "as §2"}, "[24]": {"settings": "500 g ai/ha, preemergence, 0 to 100 scale (0 no effect, 100 complete control)"}, "[25]": {"settings": "Preemergence, 125 g ai/ha, 0 to 100 scale, 0 no effect, 100 complete control"}}}
{"compound": "COC(=O)N(C)c1ncn(-c2cccc(C(=O)N3C[C@H](C)Oc4c(C)cccc43)c2)n1", "note": "[Compound 300]", "values": [{"measurement": "Plant response rating, Barnyardgrass (Flood)", "setting": "barnyardgrass [1]", "result": 0}, {"measurement": "Plant response rating, Ducksalad (Flood)", "setting": "ducksalad", "result": 0}, {"measurement": "Plant response rating, Rice (Flood)", "setting": "rice", "result": 0}, {"measurement": "Plant response rating, Sedge, Umbrella (Flood)", "setting": "sedge, umbrella", "result": 0}]}
{"compound": "CC(C)c1ncn(-c2ccc(OS(=O)(=O)C(F)(F)F)c(C(=O)N3C[C@H](C)Oc4c(Cl)cccc43)c2)n1", "note": "[Compound 339]", "values": [{"measurement": "Barnyardgrass plant response rating", "setting": "barnyardgrass [2]; [24]", "result": 0}, {"measurement": "Plant response rating, Barnyardgrass", "setting": "barnyardgrass [2]; [25]", "result": 0}, {"measurement": "Blackgrass plant response rating", "setting": "blackgrass [3]; [24]", "result": 0}, {"measurement": "Plant response rating, Blackgrass", "setting": "blackgrass [3]; [25]", "result": 0}, {"measurement": "Corn plant response rating", "setting": "corn [4]; [24]", "result": 0}, {"measurement": "Plant response rating, Corn", "setting": "corn [4]; [25]", "result": 0}, {"measurement": "Foxtail, Green plant response rating", "setting": "green foxtail [5]; [24]", "result": 0}, {"measurement": "Plant response rating, Foxtail, Green", "setting": "green foxtail [5]; [25]", "result": 0}, {"measurement": "Kochia plant response rating", "setting": "kochia [6]; [24]", "result": 50}, {"measurement": "Plant response rating, Kochia", "setting": "kochia [6]; [25]", "result": 0}, {"measurement": "Oat, Wild plant response rating", "setting": "oat, wild [7]; [24]", "result": 0}, {"measurement": "Plant response rating, Oat, Wild", "setting": "oat, wild [7]; [25]", "result": 0}, {"measurement": "Pigweed, Palmer plant response rating", "setting": "pigweed, palmer [8]; [24]", "result": 0}, {"measurement": "Plant response rating, Pigweed, Palmer", "setting": "pigweed, palmer [8]; [25]", "result": 0}, {"measurement": "Ragweed plant response rating", "setting": "ragweed [9]; [24]", "result": 0}, {"measurement": "Plant response rating, Ragweed", "setting": "ragweed [9]; [25]", "result": 0}, {"measurement": "Ryegrass, Italian plant response rating", "setting": "ryegrass, Italian [10]; [24]", "result": 80}, {"measurement": "Plant response rating, Ryegrass, Italian", "setting": "ryegrass, Italian [10]; [25]", "result": 20}, {"measurement": "Soybean plant response rating", "setting": "soybean [11]; [24]", "result": 0}, {"measurement": "Plant response rating, Soybean", "setting": "soybean [11]; [25]", "result": 0}, {"measurement": "Wheat plant response rating", "setting": "wheat [12]; [24]", "result": 0}, {"measurement": "Plant response rating, Wheat", "setting": "wheat [12]; [25]", "result": 0}, {"measurement": "Plant response rating, Barnyardgrass", "setting": "barnyardgrass [13]; 500 g ai/ha, postemergence", "result": 10}, {"measurement": "Plant response rating, Barnyardgrass", "setting": "barnyardgrass [13]; Postemergence, 125 g ai/ha", "result": 10}, {"measurement": "Plant response rating, Blackgrass", "setting": "blackgrass [14]; 500 g ai/ha, postemergence", "result": 0}, {"measurement": "Plant response rating, Blackgrass", "setting": "blackgrass [14]; Postemergence, 125 g ai/ha", "result": 0}, {"measurement": "Plant response rating, Corn", "setting": "corn [15]; 500 g ai/ha, postemergence", "result": 0}, {"measurement": "Plant response rating, Corn", "setting": "corn [15]; Postemergence, 125 g ai/ha", "result": 0}, {"measurement": "Plant response rating, Foxtail, Green", "setting": "green foxtail [16]; 500 g ai/ha, postemergence", "result": 10}, {"measurement": "Plant response rating, Foxtail, Green", "setting": "green foxtail [16]; Postemergence, 125 g ai/ha", "result": 0}, {"measurement": "Plant response rating, Kochia", "setting": "kochia [17]; 500 g ai/ha, postemergence", "result": 60}, {"measurement": "Plant response rating, Kochia", "setting": "kochia [17]; Postemergence, 125 g ai/ha", "result": 30}, {"measurement": "Plant response rating, Oat, Wild", "setting": "oat, wild [18]; 500 g ai/ha, postemergence", "result": 0}, {"measurement": "Plant response rating, Oat, Wild", "setting": "oat, wild [18]; Postemergence, 125 g ai/ha", "result": 0}, {"measurement": "Plant response rating, Pigweed, Palmer", "setting": "pigweed, palmer [19]; 500 g ai/ha, postemergence", "result": 70}, {"measurement": "Plant response rating, Pigweed, Palmer", "setting": "pigweed, palmer [19]; Postemergence, 125 g ai/ha", "result": 50}, {"measurement": "Plant response rating, Ragweed", "setting": "ragweed [20]; 500 g ai/ha, postemergence", "result": 10}, {"measurement": "Plant response rating, Ragweed", "setting": "ragweed [20]; Postemergence, 125 g ai/ha", "result": 0}, {"measurement": "Plant response rating, Ryegrass, Italian", "setting": "ryegrass, Italian [21]; 500 g ai/ha, postemergence", "result": 20}, {"measurement": "Plant response rating, Ryegrass, Italian", "setting": "ryegrass, Italian [21]; Postemergence, 125 g ai/ha", "result": 0}, {"measurement": "Plant response rating, Soybean", "setting": "soybean [22]", "result": 20}, {"measurement": "Plant response rating, Wheat", "setting": "wheat [23]; 500 g ai/ha, postemergence", "result": 0}, {"measurement": "Plant response rating, Wheat", "setting": "wheat [23]; Postemergence, 125 g ai/ha", "result": 0}, {"measurement": "Plant response rating, Galium", "setting": "galium; 500 g ai/ha, postemergence", "result": 50}, {"measurement": "Plant response rating, Galium", "setting": "galium; Postemergence, 125 g ai/ha", "result": 60}, {"measurement": "Plant response rating, Horseweed", "setting": "horseweed; 500 g ai/ha, postemergence", "result": 10}, {"measurement": "Plant response rating, Horseweed", "setting": "horseweed; Postemergence, 125 g ai/ha", "result": 0}]}
